# Experimental data from patent US20230212180A1, “SUBSTITUTED PYRAZINE COMPOUND, PHARMACEUTICAL COMPOSITION COMPRISING SAME, AND USE THEREOF” (Sichuan Kelun-Biotech Biopharmaceutical Co., Ltd., priority 2020, published 2023).
# How the values were obtained:
# [1] = test system: KYSE-520 cell (human esophageal squamous cell carcinoma cell); assay: Inhibition of the proliferation activity of KYSE-520 cell (CellTiter-Glo); assay type: cell-based; settings: 120 h, KYSE-520 cell proliferation, 5 days
# Outline: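 KYSE-520 cells, 1500/well, adhered overnight, then exposed to compound in complete medium with 10% FBS for 5 days at 37° C, 5% CO2. Viability by CellTiter-Glo luminescence, blank-corrected against cell-free medium and normalised to vehicle. IC50 from four-parameter logistic fit.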
# hERG = biological target: T1, hERG (Homo sapiens, UniProt Q12809); assay: Biochemical assay for hERG inhibition (Predictor hERG Fluorescence Polarization Assay Kit); assay type: binding
# T1 construct: purchased ThermoFisher
# T1 sequence (Q12809 whole entry): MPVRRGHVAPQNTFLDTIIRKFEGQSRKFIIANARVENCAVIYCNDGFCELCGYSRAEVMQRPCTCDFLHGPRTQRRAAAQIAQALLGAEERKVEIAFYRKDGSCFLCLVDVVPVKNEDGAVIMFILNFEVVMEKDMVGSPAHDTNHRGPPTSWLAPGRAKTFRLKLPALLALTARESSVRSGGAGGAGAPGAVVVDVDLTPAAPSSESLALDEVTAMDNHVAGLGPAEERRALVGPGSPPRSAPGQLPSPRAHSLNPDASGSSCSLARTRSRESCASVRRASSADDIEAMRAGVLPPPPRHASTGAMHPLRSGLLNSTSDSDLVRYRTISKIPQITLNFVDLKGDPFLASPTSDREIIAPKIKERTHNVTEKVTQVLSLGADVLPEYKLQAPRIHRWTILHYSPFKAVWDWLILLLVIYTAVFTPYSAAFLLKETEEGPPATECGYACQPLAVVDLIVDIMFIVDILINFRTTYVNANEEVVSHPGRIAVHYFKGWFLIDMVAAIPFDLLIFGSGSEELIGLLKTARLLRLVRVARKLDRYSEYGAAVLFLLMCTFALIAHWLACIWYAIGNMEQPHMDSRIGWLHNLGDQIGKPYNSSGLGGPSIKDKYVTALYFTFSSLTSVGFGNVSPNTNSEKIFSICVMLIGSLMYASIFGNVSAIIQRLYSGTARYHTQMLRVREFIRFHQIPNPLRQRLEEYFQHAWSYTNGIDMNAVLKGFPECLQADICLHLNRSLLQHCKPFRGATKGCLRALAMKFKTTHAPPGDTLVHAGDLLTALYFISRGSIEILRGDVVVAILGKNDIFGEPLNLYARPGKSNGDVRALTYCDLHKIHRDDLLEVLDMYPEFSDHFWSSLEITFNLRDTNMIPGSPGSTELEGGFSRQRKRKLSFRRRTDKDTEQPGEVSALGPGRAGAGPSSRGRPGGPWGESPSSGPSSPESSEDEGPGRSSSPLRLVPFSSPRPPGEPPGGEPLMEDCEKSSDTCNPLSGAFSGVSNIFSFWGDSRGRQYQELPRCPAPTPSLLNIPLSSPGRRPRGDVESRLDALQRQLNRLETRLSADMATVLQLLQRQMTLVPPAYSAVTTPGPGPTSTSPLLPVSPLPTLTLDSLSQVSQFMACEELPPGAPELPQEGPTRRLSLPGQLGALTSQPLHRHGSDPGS
# Method: Test Example 3: Biochemical Assay for hERG Inhibition
# kit: Predictor™ hERG Fluorescence Polarization Assay Kit (ThermoFisher) containing:
# Compound E4031 as a positive control;
# tracer concentration: 1 nM;
# incubation duration: 2 hours;
# parameters for microplate reader: BMG PHERAstar FS fluorescence microplate reader.
# Test group: The test compounds at different concentrations were added into a microplate containing hERG cell membrane, and the tracer with a high affinity for hERG was then added into each well. The microplate was incubated at 25° C. for 2 hours before detection of the change in fluorescence polarization value (mP) (excitation wavelength: 540 nm; emission wavelength: 590 nm) using a multi-mode microplate reader.
# Positive control group: The experimental method for the positive control group was the same as that for the test group, except that the test compound was replaced with 30 μM Compound E4031.
# Blank control group: The experimental method for the blank control group was the same as that for the test group, except that the test compound was replaced with the hERG buffer and that the hERG cell membrane was not added.
# Based on the data ratios, the percentage inhibition (%) of the compounds of the present disclosure against hERG at different concentrations was calculated and the range of the half maximal inhibitory concentration (IC50) of the compounds was determined. Percentage inhibition (%)=(1−(mP of the test compound−mP of the positive control group)/(mP of the blank control group−mP of the positive control group))×100%.
# [2] = test system: NCI-H358 cell (human non-small cell lung cancer cell); assay: Inhibition of the proliferation activity of NCI-H358 cell (CellTiter-Glo); assay type: cell-based; settings: 120 h, 5 days
# Method: Test Example 4: Experiment on the Inhibition of the Proliferation Activity of NCI-H358 Cell (Human Non-Small Cell Lung Cancer Cell)
# cell: NCI-H358 (Nanjing CoBioer);
# kit: CellTiter-Glo® Luminescent Cell Viability Assay Kit (Promega).
# inoculation amount of cell: 1500 cells/well;
# incubation conditions for compounds: 37° C., 5% CO2;
# incubation duration: 5 days;
# detecting temperature: room temperature;
# chemiluminescence detection using the BMG PHERAstar FS reader.
# Cells were cultured in a medium containing 10% fetal bovine serum under the culture conditions of 37° C. and 5% CO2. An appropriate amount of cells were plated into a 96-well plate and cultured overnight in an incubator to allow the cells to adhere to the wall. The following day, the medium was removed and a complete medium containing a pre-diluted compound was added and incubated at 37° C. for 5 days. On the fifth day, the detection reagent CellTiter-Glo® was added into each well. Chemiluminescence was adopted to detect the relative luminescence units (RLUs) of the wells.
# The result of a well containing cell-free medium, treated with CellTiter-Glo®, was obtained as the blank value. Cell viability (%)=(sample RLU−blank RLU)/(vehicle RLU−blank RLU)×100%, and maximum inhibition rate (%)=100%−cell viabilitymax. conc. (%). The half maximal inhibitory concentration (IC50) of the compound was calculated by fitting the curve according to the four-parameter logistic model.
# CYP1A2 = biological target: T2, CYP1A2 (Homo sapiens, UniProt P05177); assay: Biochemical assay for CYP enzyme inhibition, P450-Glo CYP1A2 Screening System; assay type: in vitro ADME
# T2 construct: purchased Promega
# T2 sequence (P05177 1-516): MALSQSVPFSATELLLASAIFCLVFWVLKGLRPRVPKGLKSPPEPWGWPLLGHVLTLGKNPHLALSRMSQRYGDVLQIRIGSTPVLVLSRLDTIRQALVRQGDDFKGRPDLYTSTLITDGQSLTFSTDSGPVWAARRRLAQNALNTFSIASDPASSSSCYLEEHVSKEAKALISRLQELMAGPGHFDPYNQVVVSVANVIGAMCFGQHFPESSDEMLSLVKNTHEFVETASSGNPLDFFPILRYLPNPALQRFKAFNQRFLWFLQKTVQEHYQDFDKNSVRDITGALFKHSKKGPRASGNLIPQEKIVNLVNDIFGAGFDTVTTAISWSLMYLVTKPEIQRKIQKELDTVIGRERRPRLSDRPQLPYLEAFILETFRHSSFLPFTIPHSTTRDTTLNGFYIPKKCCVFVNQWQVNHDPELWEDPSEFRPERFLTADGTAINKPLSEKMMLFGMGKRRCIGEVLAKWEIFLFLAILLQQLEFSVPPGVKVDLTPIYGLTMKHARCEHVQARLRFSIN
# Method: Test Example 5: Biochemical Assay for CYP Enzyme (Cytochrome P450) Inhibition
# P450-Glo™ CYP1A2 Screening System, (Promega);
# BMG PHERAstar FS Luminescent.
# The experiments were carried out separately according to the instructions of the kits. The steps were as follows:
# 3.1. Inhibition Against CYP1A2:
# Test group: The test compounds at different concentrations were added into a microplate, and Luciferin-ME (100 μM), K3PO4 (100 mM), and CYP1A2 (0.01 μmol/μL) were added into each well, and pre-incubated at room temperature for 10 min. Thereafter, an NADPH regeneration system was added. The mixture was reacted at room temperature for 30 min. Finally, an equal volume of detection buffer was added and incubated at room temperature for 20 min, followed by chemiluminescence detection.
# Negative control group: The experimental method for the negative control group was the same as that for the test group, except that the test compound was not added.
# Blank control group: The experimental method for the blank control group was the same as that for the test group, except that the test compound was not added and that CYP1A2 was replaced with CYP1A2 Membrance (0.01 μmol/μL).
# Percentage inhibition=(1−(the chemiluminescent signal value of the test compound group at a certain test concentration−the chemiluminescent signal value of the blank control group)/(the chemiluminescent signal value of the negative control group−the chemiluminescent signal value of the blank control group))×100%.
# When the percentage inhibition was between 30% and 80%, a single value or a value range of the half maximal inhibitory concentration (IC50) of the compound against the CYP enzyme was estimated based on the following equation: IC50=X×(1−percentage inhibition)/percentage inhibition, wherein X was the test concentration of the compound.
SMILES,IC50 [1] [nM],IC50 (hERG) [nM],IC50 [2] [nM],IC50 (CYP1A2) [nM]
"C[C@@H]1OCC2(CCN(c3ncc(Sc4ccnc(N5CCCC5CC(N)=O)c4Cl)nc3CO)CC2)[C@@H]1N (stereo partly drawn) [Example 19, 2-(1-(4-(5-((3S,4S)-4-amino-3-methyl-2-oxa-8-azaspiro[4.5]decan-8-yl)-6-(hydroxymethyl)pyrazin-2-ylthio)-3-chloropyridin-2-yl)pyrrolidin-2-yl)acetamide]",190,> 10000,220,> 10000
"C[C@@H]1OCC2(CCN(c3ncc(Sc4ccnc(N5CC(CS(C)(=O)=O)C5)c4Cl)nc3CO)CC2)[C@@H]1N [Example 26, (3-((3S,4S)-4-amino-3-methyl-2-oxa-8-azaspiro[4.5]decan-8-yl)-6-(3-chloro-2-(3-(methylsulfonylmethyl)azetidin-1-yl)pyridin-4-ylthio)pyrazin-2-yl)methanol]",30,> 10000,32,> 10000
"C[C@@H]1OCC2(CCN(c3ncc(Sc4ccnc(N5CC(CO)(CF)C5)c4Cl)nc3CO)CC2)[C@@H]1N [Example 42, (3-((3S,4S)-4-amino-3-methyl-2-oxa-8-azaspiro[4.5]decan-8-yl)-6-(3-chloro-2-(3-(fluoromethyl)-3-(hydroxymethyl)azetidin-1-yl)pyridin-4-ylthio)pyrazin-2-yl)methanol]",100,> 10000,44,> 10000
"C[C@@H]1OCC2(CCN(c3ncc(Sc4ccnc(N5CC(C(C)(C)O)C5)c4Cl)nc3CO)CC2)[C@@H]1N [Example 12, 2-(1-(4-(5-((3S,4S)-4-amino-3-methyl-2-oxa-8-azaspiro[4.5]decan-8-yl)-6-(hydroxymethyl)pyrazin-2-ylthio)-3-chloropyridin-2-yl)azetidin-3-yl)propan-2-ol]",40,> 10000,18,> 10000
"C[C@@H]1OCC2(CCN(c3ncc(Sc4ccnc(N5CC(C)(CO)C5)c4Cl)nc3CO)CC2)[C@@H]1N [Example 27, (3-((3S,4S)-4-amino-3-methyl-2-oxa-8-azaspiro[4.5]decan-8-yl)-6-(3-chloro-2-(3-(hydroxymethyl)-3-methylazetidin-1-yl)pyridin-4-ylthio)pyrazin-2-yl)methanol]",60,> 10000,30,> 10000
C[C@@H]1OCC2(CCN(c3ncc(Sc4ccnc(N5CCCC5CO)c4Cl)nc3CO)CC2)[C@@H]1N (some centres unmarked) [Example 2],100,> 10000,40,> 10000
"C[C@@H]1OCC2(CCN(c3ncc(Sc4ccnc(N5CC(C)(CS(C)(=O)=O)C5)c4Cl)nc3CO)CC2)[C@@H]1N [Example 29, (3-((3S,4S)-4-amino-3-methyl-2-oxa-8-azaspiro[4.5]decan-8-yl)-6-(3-chloro-2-(3-methyl-3-(methylsulfonylmethyl)azetidin-1-yl)pyridin-4-ylthio)pyrazin-2-yl)methanol]",40,> 10000,40,> 10000
"C[C@@H]1OCC2(CCN(c3ncc(Sc4ccnc(N5CC(C#N)(CO)C5)c4Cl)nc3CO)CC2)[C@@H]1N [Example 47, 1-(4-(5-((3S,4S)-4-amino-3-methyl-2-oxa-8-azaspiro[4.5]decan-8-yl)-6-(hydroxymethyl)pyrazin-2-ylthio)-3-chloropyridin-2-yl)-3-(hydroxymethyl)azetidine-3-carbonitrile]",40,> 10000,23,> 10000
